Structures are written as SMILES.

The Ki is the equilibrium dissociation constant of an inhibitor or competing ligand from its target. A high value points to a looser hold on the target. The EC50 is the concentration giving half of the maximal effect. For orientation: Emax means the greatest response seen or fitted, relative to the assay's reference. What is called melting point is the temperature of the solid-liquid transition.

Data set [1] has as its target T1, human 5-hydroxytryptamine-2C (h-5-HT2C) receptor (Homo sapiens, UniProt P28335).
T1 sequence (P28335 33-458): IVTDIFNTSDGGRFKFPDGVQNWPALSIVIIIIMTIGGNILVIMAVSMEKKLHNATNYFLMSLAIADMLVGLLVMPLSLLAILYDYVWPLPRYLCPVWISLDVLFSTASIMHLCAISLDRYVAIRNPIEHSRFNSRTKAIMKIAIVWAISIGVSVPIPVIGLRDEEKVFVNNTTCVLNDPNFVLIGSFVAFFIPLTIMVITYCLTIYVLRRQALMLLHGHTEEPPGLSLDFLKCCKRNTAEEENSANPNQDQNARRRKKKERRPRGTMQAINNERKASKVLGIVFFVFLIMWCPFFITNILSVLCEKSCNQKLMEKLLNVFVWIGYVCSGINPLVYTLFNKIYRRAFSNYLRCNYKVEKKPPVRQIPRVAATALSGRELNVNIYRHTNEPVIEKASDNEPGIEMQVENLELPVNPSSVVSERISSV
Nature of the data set: [125I]DOI binding to membranes of CHO cells expressing the h-5-HT2C receptor. As to conditions: 5-HT2c Affinity KI (nM), displacement of [125I]DOI, CHO cell membranes.

The target in another data set is T2, human 5-HT2C receptor (Homo sapiens, UniProt P28335).
T2 sequence (P28335 33-458): T1 sequence (P28335 33-458)
The data set is described as follows: 5-HT2C receptor-stimulated calcium mobilization (FLIPR) in CHO cells. The format is cell-based. (In general: Calcium assays in cells follow changes in intracellular calcium, usually with a dye or a luminescent sensor.)

For `CN1CCc2cccc3c4c(n(c23)CC1)CCCC4` [Example 5], the melting point was in the range of 129 to 131 °C. The compound further yielded a Ki in data set [1] of 10 nM. The EC50 at human 5-HT2C receptor came to 0.068 µM. Further, the Emax at human 5-HT2C receptor (CHO, read-out: 5-HT2C Function Emax (%)) stood at 50%.

For the origin of these results see patent US7012089B2, “[1,4]Diazocino[7,8,1-hi]indole derivatives as antipsychotic and antiobesity agents” (Wyeth, priority 2002, dated 2006).
